Experimental data from the NIST ThermoML archive (doi:10.1016/j.jct.2017.02.014).

What was measured:
[1] = refractive index (Na D-line) (dimensionless); details: 298.15 K; 101.33 kPa; Liquid; Standard Abbe refractometry
[2] = refractive index (other wavelength) (dimensionless); details: 100 kPa, Liquid, Wavelength=632.8 nm, minimum deviation angle method
[3] = refractive index (other wavelength) (dimensionless); xn = mol fraction of the nth substance listed; details: 100 kPa, Liquid, Wavelength=632.8 nm, minimum deviation angle method, x2 = 0

CCCC[n+]1ccccc1.F[B-](F)(F)F [1-butylpyridinium tetrafluoroborate]
Details	refractive index
[1]	1.4459

[2]
Details	refractive index
281.73 K	1.4481
282.78 K	1.4478
284.14 K	1.4475
285.74 K	1.4471
286.94 K	1.4468
288.24 K	1.4464
289.38 K	1.4461
290.37 K	1.4458
292.15 K	1.4454
293.41 K	1.4451
295 K	1.4446
296.89 K	1.444

CCO [ethanol]
Details	refractive index
[1]	1.3596

[2]
Details	refractive index
282.04 K	1.3645
283.11 K	1.364
284.04 K	1.3637
285.65 K	1.363
286.62 K	1.3626
288.17 K	1.362
289.33 K	1.3615
290.8 K	1.3609
291.84 K	1.3604
292.94 K	1.36
293.77 K	1.3596
295.49 K	1.3589
296.51 K	1.3585
297.44 K	1.3581
298.14 K	1.3578

CCO [ethanol] + CCCC[n+]1ccccc1.F[B-](F)(F)F
[3]
Details	refractive index
282.04 K	1.3645
283.11 K	1.364
284.04 K	1.3637
285.65 K	1.363
286.62 K	1.3626
288.17 K	1.362
289.33 K	1.3615
290.8 K	1.3609
291.84 K	1.3604
292.94 K	1.36
293.77 K	1.3596
295.49 K	1.3589
296.51 K	1.3585
297.44 K	1.3581
298.14 K	1.3578
